Experimental data reported in patent US9428519B2, “Acylated derivative of homoharringtonine, preparation method therefor, and application thereof” (HANGZHOU BENSHENG PHARMACEUTICAL CO., LTD., priority 2011, dated 2016).
In brackets after ≈: the same amount, converted by molar mass.

Experiments:
[1] = tested on: H9 (acute lymphoblastic leukemia, ALL); assay: MTT growth inhibition of leukemia cells, 72 h; type: cell-based, human; settings: MTT
From the text: (§1) Leukemia cell lines: leukemia cell lines: K562/adr (drug-resistant, chronic myeloid leukemia, CML), NB4 (acute promyelocytic leukemia, AML), Kasumi-1 (acute myeloid leukemia M2 type, AML-M2), Jurkat (acute lymphoblastic leukemia, ALL), all of which are donated by Cancer Research Institute of Zhejiang University, China; and H9 (acute lymphoblastic leukemia, ALL), which is purchased from China Center for Type Culture Collection (CCTCC).
(§2) Reagents: The standard sample of homoharringtonine (HHT) is purchased from Taihua Natural Plant Pharmaceutical Co., Ltd., Shaanxi, China, the homoharringtonine derivatives of the present invention.
(§3) Obtaining 6000 well-growing leukemia cells and inoculating them into wells of a 96-well cell culture plate. The culture medium is the 1640 cell culture medium containing 10% fetal bovine serum. After adding the homoharringtonine derivatives of different concentrations and mixing uniformly, placing the plate in a carbon dioxide cell incubator (5% CO2) at 37° C. and incubated for 72 hours. Then the viable cell concentration is determined by the MTT method. In this experiment, the cell viability in control group (not treated with any compound) is set as 100%. On such basis, the cell viability (%) after treatment and the 50% inhibiting concentration of the compound for the leukemia cell growth at 72 hours (IC50 value of 72 hours) are calculated.

[2] = tested on: Jurkat (acute lymphoblastic leukemia, ALL); assay: MTT growth inhibition of leukemia cells, 72 h; type: cell-based, human
From the text: as §1, §2, §3

[3] = tested on: K562/adr (drug-resistant, chronic myeloid leukemia, CML); assay: MTT growth inhibition of leukemia cells, 72 h; type: cell-based, human; settings: MTT
From the text: as §1, §2, §3

[4] = tested on: Kasumi-1 (acute myeloid leukemia M2 type, AML-M2); assay: MTT growth inhibition of leukemia cells, 72 h; type: cell-based, human; settings: MTT
From the text: as §1, §2, §3

[5] = tested on: NB4 (acute promyelocytic leukemia, AML); assay: MTT growth inhibition of leukemia cells, 72 h; type: cell-based, human; settings: MTT
From the text: as §1, §2, §3

[6] = tested on: RPMI8226 (multiple myeloma); assay: MTT growth inhibition of multiple myeloma cells, 72 h; type: cell-based, human; settings: MTT
Experimental: Multiple myeloma and lymphoma cell lines: RPMI8226 (multiple myeloma), purchased from Fuxiang Bio-tech Co. Ltd., Shanghai, China.
as §3

A549 (human lung cancer) = assay: MTT growth inhibition of human solid tumor cells, 72 h; type: cell-based
Experimental: (§4) Human solid tumor cell lines: Hep-2 (laryngeal carcinoma), A549 (human lung cancer), CaES-17 (esophageal cancer cell), PC-3 (prostate cancer), CNE (nasopharyngeal carcinoma cell), and SK-OV-3 (ovarian cancer cell), all of which are purchased from China Center For Type Culture Collection; RKO (human colon adenocarcinoma cell), MGC 803 (human gastric cancer cell), MG63 (osteosarcoma) and U87 MG (malignant glioma cell), all of which are purchased from Fuxiang Bio-tech Co. Ltd., Shanghai, China; PANC-1 (pancreatic cancer), Huh7 (human liver cancer cell), Becap37 (human breast cancer cell), and Hela (human cervical cancer cell), all of which are donated by Cancer Research Institute of Zhejiang University, China.
(§5) Obtaining 4000 well-growing human solid tumor cells and inoculating them into wells of a 96-well cell culture plate. The culture medium is DMEM High Glucose cell culture medium containing 10% fetal bovine serum. The plate is placed in a carbon dioxide cell incubator (5% CO2) at 37° C. and incubated for 24 hours. After adding the homoharringtonine derivatives of different concentration and mixing uniformly, the plate is placed in a carbon dioxide cell incubator (5% CO2) at 37° C. and incubated for 72 hours. Then the viable cell concentration is determined by the MTT method and the cell viability (%) after drug treatment is calculated. In this experiment, the cell viability of control group (not treated with any compound) is set as 100%.

[7] = tested on: Becap37 (human breast cancer cell); assay: as above; type: cell-based
Experimental: as §4, §5

[8] = tested on: CNE (nasopharyngeal carcinoma cell); assay: as above; type: cell-based; settings: MTT
Experimental: as §4, §5

[9] = tested on: CaES-17 (esophageal cancer cell); assay: as above; type: cell-based
Experimental: as §4, §5

[10] = tested on: Hela (human cervical cancer cell); assay: as above; type: cell-based; settings: MTT
Experimental: as §4, §5

[11] = tested on: Hep-2 (laryngeal carcinoma); assay: as above; type: cell-based
Experimental: as §4, §5

[12] = tested on: Huh7 (human liver cancer cell); assay: as above; type: cell-based
Experimental: as §4, §5

MG63 (osteosarcoma) = assay: as above; type: cell-based; settings: MTT
Experimental: as §4, §5

[13] = tested on: MGC 803 (human gastric cancer cell); assay: as above; type: cell-based
Experimental: as §4, §5

[14] = tested on: PANC-1 (pancreatic cancer); assay: as above; type: cell-based; settings: MTT
Experimental: as §4, §5

PC-3 (prostate cancer) = assay: as above; type: cell-based; settings: MTT
Experimental: as §4, §5

[15] = tested on: RKO (human colon adenocarcinoma cell); assay: as above; type: cell-based; settings: MTT
Experimental: as §4, §5

[16] = tested on: SK-OV-3 (ovarian cancer cell); assay: as above; type: cell-based; settings: MTT
Experimental: as §4, §5

[17] = tested on: U87 MG (malignant glioma cell); assay: as above; type: cell-based
Experimental: as §4, §5

COC(=O)C[C@](O)(CCCC(C)(C)OC(=O)C1CCCCC1)C(=O)O[C@@H]1C(OC)=C[C@]23CCCN2CCc2cc4c(cc2[C@H]13)OCO4 [BS-HH-076]
IC50 H9 [1]: 0.01 µg/mL (≈ 0.0152 µM) | IC90 H9 [1]: 0.04 µg/mL (≈ 0.061 µM) | IC50 Jurkat [2]: 0.006 µg/mL (≈ 0.00915 µM) | IC90 Jurkat [2]: 6.24 µg/mL (≈ 9.52 µM) | IC50 K562/adr [3]: 0.02 µg/mL (≈ 0.0305 µM) | IC90 K562/adr [3]: 0.21 µg/mL (≈ 0.32 µM) | IC50 Kasumi-1 [4]: 0.006 µg/mL (≈ 0.00915 µM) | IC90 Kasumi-1 [4]: 0.023 µg/mL (≈ 0.0351 µM) | IC50 NB4 [5]: 0.009 µg/mL (≈ 0.0137 µM) | IC90 NB4 [5]: 0.022 µg/mL (≈ 0.0335 µM) | IC50 RPMI8226 [6]: 0.007 µg/mL (≈ 0.0107 µM) | IC90 RPMI8226 [6]: 0.034 µg/mL (≈ 0.0518 µM) | IC50 A549 (A549 (human lung cancer)): 0.03 µg/mL (≈ 0.0457 µM) | IC90 A549 (A549 (human lung cancer)): >16 µg/mL | IC50 Becap37 [7]: 0.01 µg/mL (≈ 0.0152 µM) | IC90 Becap37 [7]: 6.4 µg/mL (≈ 9.76 µM) | IC50 CNE [8]: 0.029 µg/mL (≈ 0.0442 µM) | IC90 CNE [8]: >16 µg/mL | IC50 CaES-17 [9]: 0.039 µg/mL (≈ 0.0595 µM) | IC90 CaES-17 [9]: 16 µg/mL (≈ 24.4 µM) | IC50 Hela [10]: 0.011 µg/mL (≈ 0.0168 µM) | IC90 Hela [10]: 10.25 µg/mL (≈ 15.6 µM) | IC50 Hep-2 [11]: 0.012 µg/mL (≈ 0.0183 µM) | IC90 Hep-2 [11]: >16 µg/mL | IC50 Huh7 [12]: 0.008 µg/mL (≈ 0.0122 µM) | IC90 Huh7 [12]: 0.096 µg/mL (≈ 0.146 µM) | IC50 MG 63 (MG63 (osteosarcoma)): 0.022 µg/mL (≈ 0.0335 µM) | IC90 MG 63 (MG63 (osteosarcoma)): 1.72 µg/mL (≈ 2.62 µM) | IC50 MGC 803 [13]: 0.025 µg/mL (≈ 0.0381 µM) | IC90 MGC 803 [13]: 0.098 µg/mL (≈ 0.149 µM) | IC50 PANC-1 [14]: 0.042 µg/mL (≈ 0.064 µM) | IC90 PANC-1 [14]: >16 µg/mL | IC50 PC-3 (PC-3 (prostate cancer)): 0.03 µg/mL (≈ 0.0457 µM) | IC90 PC-3 (PC-3 (prostate cancer)): >16 µg/mL | IC50 RKO [15]: 0.008 µg/mL (≈ 0.0122 µM) | IC90 RKO [15]: 0.02 µg/mL (≈ 0.0305 µM) | IC50 SK-OV-3 [16]: 0.031 µg/mL (≈ 0.0473 µM) | IC90 SK-OV-3 [16]: >16 µg/mL | IC50 U87 MG [17]: 0.009 µg/mL (≈ 0.0137 µM) | IC90 U87 MG [17]: 0.067 µg/mL (≈ 0.102 µM)
